Source: patent US11787785B2 (NOVARTIS AG, priority 2021, dated 2023)

Molecular target: T1, WIZ protein (HiBit-WIZ fusion protein) (Homo sapiens, UniProt O95785+Q96SW2)
T1 construct: expressed in transfected cells
Assay: Quantification of WIZ protein levels in HiBit tag fusion protein assay (WIZ HiBit assay in 293T cells)
Assay type: cell-based
Details: for Dmax at 25 µM / remaining activity at 25 µM: HEK-293T, 293T cells; for Dmax at 25 µM: 100 − Amax, read-out: % degradation of WIZ (100 − Amax); for remaining activity at 25 µM: DMSO-normalized, curve-fitted percentage of WIZ-HiBit remaining at 25 uM, read-out: WIZ Amax; for DC50: WIZ HiBit assay in 293T cells, 10-point, 5-fold dose response, highest concentration 25 μM, about 18 hours, read-out: WIZ AC50
Description: The HiBit system from Promega was used to develop high-throughput and quantitative assays to measure changes in WIZ protein levels in response to compounds. The HiBit tag was derived from a split Nanoluciferase and has the following protein sequence: […] (SEQ ID NO: 1). The complementary fragment of Nanoluciferase (known as LgBit, from Promega), was added to the HiBit tag to form an active Nanoluciferase enzyme whose activity can be precisely measured. In this way, the levels of a fusion protein with the HiBit tag can be quantified in cell lysates.
Lentiviral vectors, based on the Invitrogen™ pLenti6.2/V5 DEST backbone were constructed that places the HiBit tag upstream of WIZ and expressed the fusion protein from an HSVTK promotor.
To ensure moderate and consistent expression of the HiBit-WIZ fusion protein across all cells in the population, stable cell lines were constructed from cells harboring a single copy of the construct. Lentivirus packaged with the constructs were made using the ViraPower™ kit from Invitrogen™. 293T cells from ATCC (Catalog number: CRL-3216), were infected with the virus at low multiplicity of infection and selected by 5 μg/mL blasticidin in culture media for 2 weeks.
The levels of HiBit-WIZ tagged fusion proteins in compound-treated cell lines were measured as follows:
On day 1, cells were diluted to 1.0×10^6 cells/ml in normal growth medium. 20 μL of cell suspension were plated in each well of a solid white 384-well plate. Plates were incubated overnight in a 37° C. and 5% CO2 humidified tissue culture incubator.
On day 2, serial dilutions of compounds were made in 384-well plates. Compound plates were set up with DMSO in columns 1, 2, 23, 24, and 10-point compound dilution series in column 3-12 and column 13-22. 10 mM stock solution of compound were placed into column 3 or 13 and a 1:5 serial dilution was carried out until there was a 10-point dilution series per compound. 50 nL of diluted compounds were transferred into the plated cells by Echo® (Labcyte) acoustic transfer. The highest concentration of compound was 25 μM. Plates were incubated overnight (about 18 hours) in a 37° C. and 5% CO2 humidified tissue culture incubator.
On day 3, plates were removed from the incubator and allowed to equilibrate at room temperature for 60 minutes. HiBit substrate (Nano-Glo® HiBit Lytic Detection System, Promega Catalogue number: N3050) was added as described by the manufacturers protocols. Plates were incubated at room temperature for 30 minutes and luminescence was read using an EnVision® reader (PerkinElmer®). Data was analyzed and visualized using the Spotfire® software package.
WIZ Degradation Activity of Compounds (Table 1)
WIZ Amax reflects the DMSO-normalized, curve-fitted percentage of WIZ-HiBit remaining at 25 uM. It was calculated by normalizing […] controls to 100%, parametric curve fitting of the dose response data (10-point, 5-fold), followed by calculation of response at 25 uM using the fitted equation (nd=not determined).

T1 sequence (O95785 whole entry, the tested form may be a part): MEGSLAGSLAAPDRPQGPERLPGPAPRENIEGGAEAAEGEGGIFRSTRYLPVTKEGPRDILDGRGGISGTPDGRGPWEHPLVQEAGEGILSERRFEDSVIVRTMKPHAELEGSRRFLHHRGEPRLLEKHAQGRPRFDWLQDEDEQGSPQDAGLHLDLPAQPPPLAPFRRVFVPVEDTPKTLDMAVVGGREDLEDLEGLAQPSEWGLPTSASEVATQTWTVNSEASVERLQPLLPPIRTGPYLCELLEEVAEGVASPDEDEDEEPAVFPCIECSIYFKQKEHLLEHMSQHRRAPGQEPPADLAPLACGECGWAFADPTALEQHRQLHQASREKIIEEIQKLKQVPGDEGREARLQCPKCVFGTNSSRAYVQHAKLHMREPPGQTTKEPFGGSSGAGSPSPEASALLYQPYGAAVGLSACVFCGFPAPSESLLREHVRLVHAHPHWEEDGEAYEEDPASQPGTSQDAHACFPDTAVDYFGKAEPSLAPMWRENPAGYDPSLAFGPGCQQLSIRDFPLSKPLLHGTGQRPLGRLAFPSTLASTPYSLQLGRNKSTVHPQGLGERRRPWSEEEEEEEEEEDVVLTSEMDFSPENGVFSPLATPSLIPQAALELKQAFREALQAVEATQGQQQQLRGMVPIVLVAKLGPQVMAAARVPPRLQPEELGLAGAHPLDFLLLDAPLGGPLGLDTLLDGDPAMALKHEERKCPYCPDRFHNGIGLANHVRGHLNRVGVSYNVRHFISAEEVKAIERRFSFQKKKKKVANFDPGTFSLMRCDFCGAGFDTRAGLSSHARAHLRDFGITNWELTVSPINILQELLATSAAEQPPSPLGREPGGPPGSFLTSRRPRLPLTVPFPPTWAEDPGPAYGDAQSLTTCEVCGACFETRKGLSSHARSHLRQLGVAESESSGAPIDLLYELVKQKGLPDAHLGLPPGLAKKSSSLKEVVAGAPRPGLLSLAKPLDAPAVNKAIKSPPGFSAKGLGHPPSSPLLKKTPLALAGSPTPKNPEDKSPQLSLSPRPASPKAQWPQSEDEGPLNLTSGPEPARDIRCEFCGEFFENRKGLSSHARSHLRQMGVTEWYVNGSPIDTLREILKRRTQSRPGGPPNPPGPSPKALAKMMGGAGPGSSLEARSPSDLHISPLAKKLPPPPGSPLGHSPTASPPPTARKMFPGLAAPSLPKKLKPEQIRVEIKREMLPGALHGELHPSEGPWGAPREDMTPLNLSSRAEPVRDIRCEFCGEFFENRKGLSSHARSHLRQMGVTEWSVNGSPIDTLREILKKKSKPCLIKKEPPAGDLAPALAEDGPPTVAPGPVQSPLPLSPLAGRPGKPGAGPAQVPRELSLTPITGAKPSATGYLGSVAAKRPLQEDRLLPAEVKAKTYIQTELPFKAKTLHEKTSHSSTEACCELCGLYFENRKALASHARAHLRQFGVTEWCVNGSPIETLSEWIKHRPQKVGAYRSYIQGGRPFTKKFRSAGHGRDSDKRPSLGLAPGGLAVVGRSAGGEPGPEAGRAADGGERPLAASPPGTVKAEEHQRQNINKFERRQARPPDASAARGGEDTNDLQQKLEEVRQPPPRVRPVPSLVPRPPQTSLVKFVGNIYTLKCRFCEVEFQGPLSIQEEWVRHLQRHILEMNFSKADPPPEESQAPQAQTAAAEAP
T1 sequence (Q96SW2 whole entry, the tested form may be a part): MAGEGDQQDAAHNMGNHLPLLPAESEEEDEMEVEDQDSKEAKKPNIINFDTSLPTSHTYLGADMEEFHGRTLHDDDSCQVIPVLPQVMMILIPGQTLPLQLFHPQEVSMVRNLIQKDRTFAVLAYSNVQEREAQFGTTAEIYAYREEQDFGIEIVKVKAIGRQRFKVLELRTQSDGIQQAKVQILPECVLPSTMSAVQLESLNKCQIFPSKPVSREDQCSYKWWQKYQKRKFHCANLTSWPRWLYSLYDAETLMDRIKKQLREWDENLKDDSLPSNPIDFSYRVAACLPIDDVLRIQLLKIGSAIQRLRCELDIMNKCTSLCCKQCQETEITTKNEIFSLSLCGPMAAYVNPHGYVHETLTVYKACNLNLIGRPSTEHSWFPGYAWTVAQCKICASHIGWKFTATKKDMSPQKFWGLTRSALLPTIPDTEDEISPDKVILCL
T1 sequence (Q16531 whole entry partner, the tested form may be a part): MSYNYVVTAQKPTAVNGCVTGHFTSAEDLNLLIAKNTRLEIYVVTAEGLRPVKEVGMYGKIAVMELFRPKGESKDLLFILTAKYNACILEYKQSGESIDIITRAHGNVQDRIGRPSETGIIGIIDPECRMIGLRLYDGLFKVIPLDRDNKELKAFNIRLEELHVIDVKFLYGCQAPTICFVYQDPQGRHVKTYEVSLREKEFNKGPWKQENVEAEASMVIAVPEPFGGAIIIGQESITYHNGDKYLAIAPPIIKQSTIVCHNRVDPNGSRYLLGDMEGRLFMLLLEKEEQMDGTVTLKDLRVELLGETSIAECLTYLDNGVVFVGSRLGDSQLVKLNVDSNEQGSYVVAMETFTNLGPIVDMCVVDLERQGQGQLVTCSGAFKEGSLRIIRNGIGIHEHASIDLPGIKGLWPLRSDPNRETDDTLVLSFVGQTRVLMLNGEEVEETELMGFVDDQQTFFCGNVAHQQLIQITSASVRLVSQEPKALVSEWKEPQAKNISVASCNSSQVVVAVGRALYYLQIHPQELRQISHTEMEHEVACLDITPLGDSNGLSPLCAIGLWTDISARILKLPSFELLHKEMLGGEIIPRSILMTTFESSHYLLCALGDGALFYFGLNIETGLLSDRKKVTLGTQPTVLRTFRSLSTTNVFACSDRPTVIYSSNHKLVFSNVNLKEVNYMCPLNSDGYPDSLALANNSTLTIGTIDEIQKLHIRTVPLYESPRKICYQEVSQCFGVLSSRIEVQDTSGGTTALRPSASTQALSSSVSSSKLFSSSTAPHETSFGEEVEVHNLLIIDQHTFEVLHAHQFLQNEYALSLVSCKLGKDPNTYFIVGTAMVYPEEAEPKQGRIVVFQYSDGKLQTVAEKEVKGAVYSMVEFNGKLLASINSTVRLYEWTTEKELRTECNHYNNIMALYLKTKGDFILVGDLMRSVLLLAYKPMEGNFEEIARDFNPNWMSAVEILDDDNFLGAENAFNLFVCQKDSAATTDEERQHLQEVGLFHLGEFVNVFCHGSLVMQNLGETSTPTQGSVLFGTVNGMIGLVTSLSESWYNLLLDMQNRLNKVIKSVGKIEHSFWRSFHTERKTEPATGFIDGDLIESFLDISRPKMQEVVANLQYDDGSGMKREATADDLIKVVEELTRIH

| SMILES | Dmax at 25 µM [%] | remaining activity at 25 µM [%] | DC50 [nM] |
| --- | --- | --- | --- |
| CC(C)CCN1CCC(Cc2ccn3ncc(N4CCC(=O)NC4=O)c3c2)CC1 [Example 19, 1-(5-((1-isopentylpiperidin-4-yl)methyl)pyrazolo[1,5-a]pyridin-3-yl)dihydropyrimidine-2,4(1H,3H)-dione] | 81 | 19 | 20 |
| CCC(CC)N1CCC(Cc2ccn3ncc(N4CCC(=O)NC4=O)c3c2)CC1 [Example 20, 1-(5-((1-(pentan-3-yl)piperidin-4-yl)methyl)pyrazolo[1,5-a]pyridin-3-yl)dihydropyrimidine-2,4(1H,3H)-dione] | 79 | 21 | 22 |
| CC(c1cccnc1)N1CCC(Cc2ccn3ncc(N4CCC(=O)NC4=O)c3c2)CC1 (stereo not drawn) [Example 21, 1-(5-((1-(1-(pyridin-3-yl)ethyl)piperidin-4-yl)methyl)pyrazolo[1,5-a]pyridin-3-yl)dihydropyrimidine-2,4(1H,3H)-dione] | 78 | 22 | 25 |
| O=C1CCN(c2cnn3ccc(CC4CCN(Cc5cccc(F)c5)CC4)cc23)C(=O)N1 [Example 22, 1-(5-((1-(3-fluorobenzyl)piperidin-4-yl)methyl)pyrazolo[1,5-a]pyridin-3-yl)dihydropyrimidine-2,4(1H,3H)-dione] | 77 | 23 | 71 |
| O=C1CCN(c2cnn3ccc(CC4CCN(Cc5ccc(F)cc5)CC4)cc23)C(=O)N1 [Example 23, 1-(5-((1-(4-fluorobenzyl)piperidin-4-yl)methyl)pyrazolo[1,5-a]pyridin-3-yl)dihydropyrimidine-2,4(1H,3H)-dione] | 77 | 23 | 144 |
| CCN1CCC(Cc2ccn3ncc(N4CCC(=O)NC4=O)c3c2)CC1 [Example 24, 1-(5-((1-ethylpiperidin-4-yl)methyl)pyrazolo[1,5-a]pyridin-3-yl)dihydropyrimidine-2,4(1H,3H)-dione] | 77 | 23 | 1080 |
| O=C1CCN(c2cnn3ccc(CC4CCN(Cc5cccc(C(F)(F)F)c5)CC4)cc23)C(=O)N1 [Example 25, 1-(5-((1-(3-(trifluoromethyl)benzyl)piperidin-4-yl)methyl)pyrazolo[1,5-a]pyridin-3-yl)dihydropyrimidine-2,4(1H,3H)-dione] | 76 | 24 | 40 |
| CC(c1ccccc1)N1CCC(Cc2ccn3ncc(N4CCC(=O)NC4=O)c3c2)CC1 (stereo not drawn) [Example 26, 1-(5-((1-(1-phenylethyl)piperidin-4-yl)methyl)pyrazolo[1,5-a]pyridin-3-yl)dihydropyrimidine-2,4(1H,3H)-dione] | 76 | 24 | 297 |
| O=C1CCN(c2cnn3ccc(CC4CCN(Cc5cccc(OC(F)(F)F)c5)CC4)cc23)C(=O)N1 [Example 27, 1-(5-((1-(3-(trifluoromethoxy)benzyl)piperidin-4-yl)methyl)pyrazolo[1,5-a]pyridin-3-yl)dihydropyrimidine-2,4(1H,3H)-dione] | 76 | 24 | 46 |
| O=C1CCN(c2cnn3ccc(CC4CCN(Cc5ccncc5)CC4)cc23)C(=O)N1 [Example 28, 1-(5-((1-(pyridin-4-ylmethyl)piperidin-4-yl)methyl)pyrazolo[1,5-a]pyridin-3-yl)dihydropyrimidine-2,4(1H,3H)-dione] | 75 | 25 | 105 |
| O=C1CCN(c2cnn3ccc(CC4CCN(Cc5ccccc5)CC4)cc23)C(=O)N1 [Example 29, 1-(5-((1-benzylpiperidin-4-yl)methyl)pyrazolo[1,5-a]pyridin-3-yl)dihydropyrimidine-2,4(1H,3H)-dione] | 74 | 26 | 232 |
| O=C1CCN(c2cnn3ccc(CC4CCN(CC(F)(F)F)CC4)cc23)C(=O)N1 [Example 30, 1-(5-((1-(2,2,2-trifluoroethyl)piperidin-4-yl)methyl)pyrazolo[1,5-a]pyridin-3-yl)dihydropyrimidine-2,4(1H,3H)-dione] | 80 | 20 | 201 |
| O=C1CCN(c2cnn3ccc(CC4CCN(CC(F)(F)C(F)F)CC4)cc23)C(=O)N1 [Example 31, 1-(5-((1-(2,2,3,3-tetrafluoropropyl)piperidin-4-yl)methyl)pyrazolo[1,5-a]pyridin-3-yl)dihydropyrimidine-2,4(1H,3H)-dione] | 74 | 26 | 27 |
| O=C1CCN(c2cnn3ccc(CC4CCN(CC5CC(F)(F)C5)CC4)cc23)C(=O)N1 [Example 32, 1-(5-((1-((3,3-difluorocyclobutyl)methyl)piperidin-4-yl)methyl)pyrazolo[1,5-a]pyridin-3-yl)dihydropyrimidine-2,4(1H,3H)-dione] | 82 | 18 | 23 |
| O=C1CCN(c2cnn3ccc(CC4CCN(Cc5cncc(F)c5)CC4)cc23)C(=O)N1 [Example 33, 1-(5-((1-((5-fluoropyridin-3-yl)methyl)piperidin-4-yl)methyl)pyrazolo[1,5-a]pyridin-3-yl)dihydropyrimidine-2,4(1H,3H)-dione] | 73 | 27 | 31 |
| COCCN1CCC(Cc2ccn3ncc(N4CCC(=O)NC4=O)c3c2)CC1 [Example 34, 1-(5-((1-(2-methoxyethyl)piperidin-4-yl)methyl)pyrazolo[1,5-a]pyridin-3-yl)dihydropyrimidine-2,4(1H,3H)-dione] | 73 | 27 | 945 |
| O=C1CCN(c2cnn3ccc(CC4CCN(CCO)CC4)cc23)C(=O)N1 [Example 35, 1-(5-((1-(2-hydroxyethyl)piperidin-4-yl)methyl)pyrazolo[1,5-a]pyridin-3-yl)dihydropyrimidine-2,4(1H,3H)-dione] | 73 | 27 | 3140 |
| Cc1cncc(CN2CCC(Cc3ccn4ncc(N5CCC(=O)NC5=O)c4c3)CC2)c1 [Example 36, 1-(5-((1-((5-methylpyridin-3-yl)methyl)piperidin-4-yl)methyl)pyrazolo[1,5-a]pyridin-3-yl)dihydropyrimidine-2,4(1H,3H)-dione] | 72 | 28 | 68 |
| CC(C)N1CCC(Cc2ccn3ncc(N4CCC(=O)NC4=O)c3c2)CC1 [Example 37, 1-(5-((1-isopropylpiperidin-4-yl)methyl)pyrazolo[1,5-a]pyridin-3-yl)dihydropyrimidine-2,4(1H,3H)-dione] | 72 | 28 | 446 |
| O=C1CCN(c2cnn3ccc(CC4CCN(Cc5ccccc5F)CC4)cc23)C(=O)N1 [Example 38, 1-(5-((1-(2-fluorobenzyl)piperidin-4-yl)methyl)pyrazolo[1,5-a]pyridin-3-yl)dihydropyrimidine-2,4(1H,3H)-dione] | 71 | 29 | 112 |
| CC(C)(F)CN1CCC(Cc2ccn3ncc(N4CCC(=O)NC4=O)c3c2)CC1 [Example 39, 1-(5-((1-(2-fluoro-2-methylpropyl)piperidin-4-yl)methyl)pyrazolo[1,5-a]pyridin-3-yl)dihydropyrimidine-2,4(1H,3H)-dione] | 71 | 29 | 83 |
| C=C(C)CN1CCC(Cc2ccn3ncc(N4CCC(=O)NC4=O)c3c2)CC1 [Example 39a, 1-(5-((1-(2-methylallyl)piperidin-4-yl)methyl)pyrazolo[1,5-a]pyridin-3-yl)dihydropyrimidine-2,4(1H,3H)-dione] | 68 | 32 | 87 |
